Experimental data reported in patent US20110177156A1, “Sterol-Modified Amphiphilic Lipids” (priority 2007, published 2011).
Like-named read-outs stand apart in the source and are kept apart here. One block for each compound: values may come before it.

How the values were obtained:
[1] = Differential scanning calorimetry of SMLs and SML/diacyl lipid mixtures; type: physicochemical
Source text: Specific SMLs were used as the model compounds to study the properties of the SML compounds. Phase behavior is one of the most important properties of lipid bilayers and is associated with various biological functions of cell membranes. Addition of free cholesterol to the phospholipid bilayer will change the phase behavior of the bilayer due to the mixing of free cholesterol with the glycerolipids and sphingolipids as well as the effect the isoprenol tail of free cholesterol exerts on the acyl chain packing in the bilayer. Using differential scanning calorimetry it was shown that the SMLs exert a similar effect as free cholesterol on acyl chain packing in bilayers composed of synthetic lipids. […] The equivalent sterol molar percentage in the mixture of m-SML and diacyl lipid is calculated according to the method of conventional lipid mixture with the following formula: Sterol %=[…])×100, wherein: For example, a pure m-SML has one sterol and one acyl chain, thus the equivalent free sterol percentage is 1/1.5×100=67. […]

[2] = SML:PC:AmB=2:2:1 (mole) liposomes, stored at 4° C.
C26 colon carcinoma = experiment: Survival of Balb/C mice tumored with C26 colon carcinoma after doxorubicin delivered in liposomes of various compositions; type: in vivo; conditions: Dose of Dox 10 mg/kg, s.c. C26 tumors
Procedure: The effect of these formulations on tumor progression and animal survival were compared against the effect non-encapsulated doxorubicin or Doxil™, a commercial liposome formulation of doxorubicin that is approved by the Food and Drug Administration in the Balb/C mice tumored with C26 colon carcinoma. (FIGS. 8 and 9, Table 3).
Drug loaded liposomes of defined size were prepared by methods well known in the art and described in, for example, (Liposomes: 2nd edition, Oxford University Press, 2003, V. Torchilin and V. Weissig., Ed.). Lipid films were prepared by drying 10 μmoles of lipid mixtures dissolved in chloroform under a reduced pressure in glass tubes using a rotary evaporator at room temperature, followed by an overnight exposure to a high vacuum. Liposomes were prepared by rehydrating the thin lipid film above the transition temperature of the lipid in a sterile 250 mM ammonium sulfate solution in screw-capped glass tubes, followed by sonication in a bath type sonicator for 10 minutes at 60° C. The liposome preparation was then extruded through 0.1 micron polycarbonate membranes. […] Mean vesicle diameters as measured by dynamic light scattering using the multimodal program ranged between 85-140 nm with a monodisperse particle size distribution (Malvern Instruments, UK). […]
All animal experiments were performed in compliance with the NIH guidelines for animal research under a protocol approved by the Committee on Animal Research at the University of California, San Francisco. […] Mice were weighed and tumor sizes were monitored daily during the experimental period. The tumor volume was estimated by measuring three orthogonal diameters (a, b, and c) with calipers; the volume was calculated as (a×b×c)×0.5 cm^3. […] In each experiment the mice were monitored for up to 60 days post-inoculation or until one of the following conditions for euthanasia was met: 1) their body weight dropped below 15% of their initial mass; 2) their tumor was greater than 2.0 cm across in any dimension; 3) they became lethargic or sick and unable to feed; or 4) they were found dead. […]

[3] = tested on: C26 colon carcinoma cells; conditions: MTT, concentration as high as 1 mM
[4] = Leakage of calcein from liposomes in 30% fetal bovine serum at 37° C.
[5] = calcein liposomes, 37° C., compared with DMPC liposomes
[6] = Cholesterol exchange from donor liposomes to POPC acceptor liposomes at 37° C.; type: physicochemical; conditions: for exchange of cholesterol out of donor liposomes: PChcPC/DPPC/DPPG (50/40/10), DChcPC/DPPC/DPPG (25/65/10), POPC acceptor
Procedure: Unilamellar liposomes were prepared by extrusion method. […] Specifically, the three donor liposomes were formulated at the following molar ratios: 1) […] (50/40/10), 2) […] (25/65/10), 3) Chol/DPPC/DPPG (40/50/10). Neutral 1-palmitoyl-2-oleoyl-sn-glycero-3-phosphocholine (POPC) liposome was used as the acceptor. After extrusion, the diameter of the donor liposomes was around 100 nm, and 140 nm for the acceptor liposome. For the exchange experiments, 1 mL donor liposomes (10 mM) and 1 mL acceptor liposomes (100 mM, 10 fold) were warmed at 37° C. first, then mixed and incubated at 37° C. An aliquot (250 μL) of mixture was sampled at given time point and applied to a small (ca. 1 cm in length) anion exchange column (Q-Sepharose XL). The column was pretreated with 0.1 mL 10 mM POPC before the loading of the exchange sample to reduce the nonspecific binding of the neutral liposome. The column was eluted with 1 mL 10 mM NaCl, 10 mM HEPES pH 7.4 buffer. The eluate was lyophilized and analyzed by the cholesterol assay to quantify the amount of cholesterol exchanged.

[7] = type: physicochemical
Procedure: SML16m was designed to have a large surface area than conventional phospholipids by replacing of the hydrophobic lipid chain with an amphiphilic poly(ethylene glycol) chain. […] Unlike conventional amphiphilic molecules, SML16m solution doesn't foam when agitated, but forms a thin membrane along the glass wall above the solution surface. SML16m can effectively solubilize amphotericin B at molar ratios of 1:1 or higher to obtain a concentration of 5 mg/mL. SML16m can also be formulated with other lipids to achieve small liposomes.

- equivalent cholesterol at which the phase transition is eliminated completely ([1]; SML mixed with diacyl lipid of the same chain length (C-16)): 30%
Compound: 1-Cholesterylcarbonoyl-2-palmityl-rac-glycero-3-phosphocholine [SML2b]

Compound: CCCCCCCCCCCCCCCCOCC(COP(=O)([O-])OCC[N+](C)(C)C)OC(=O)OC1CCC2(C)C(=CCC3C2CCC2(C)C(C(C)CCCC(C)C)CCC32)C1 (racemic) [SML4b, 1-Palmityl-2-cholesterylcarbonoyl-rac-glycero-3-phosphocholine]
- stability of formulation at 4° C. [2]: more than one year

Compound: CCCCCCCCCCCCCCOCC(COP(=O)([O-])OCC[N+](C)(C)C)OC(=O)OC1CCC2(C)C(=CCC3C2CCC2(C)C(C(C)CCCC(C)C)CCC32)C1 (racemic) [SML4c, 1-Myristyl-2-cholesterylcarbonoyl-rac-glycero-3-phosphocholine]
- stability of formulation at 4° C. [2]: more than one year

Compound: COc1cccc2c1C(=O)c1c(O)c3c(c(O)c1C2=O)C[C@@](O)(C(=O)CO)C[C@@H]3O[C@H]1C[C@H](N)[C@H](O)[C@H](C)O1 [Free Dox, Doxorubicin]
- # of Animals Surviving at Day 60 (n = 5) (C26 colon carcinoma): 0
- Median Survival Day (C26 colon carcinoma): 26 days
- # of Animals Surviving at Day 60 (n = 5) (C26 colon carcinoma; listed as non-encapsulated doxorubicin): no animals survived to 60 days

Compound: CCCCCCCCCCCCCCCCCCNC(=O)OC(COC(=O)OC1CCC2(C)C(=CCC3C2CCC2(C)C(C(C)CCCC(C)C)CCC32)C1)COP(=O)([O-])OCC[N+](C)(C)C (centres unmarked) [SML1a, 1-Cholesterylcarbonoyl-2-stearylcarbamoyl-sn-glycero-3-phosphocholine]
- cytotoxicity [3]: certain cytotoxicity

Compound: CCCCCCCCCCCCCCCCNC(=O)OC(COC(=O)OC1CCC2(C)C(=CCC3C2CCC2(C)C(C(C)CCCC(C)C)CCC32)C1)COP(=O)([O-])OCC[N+](C)(C)C (centres unmarked) [SML1b, 1-Cholesterycarbonoyl-2-palmitylcarbamoyl-sn-glycero-3-phosphocholine]
- cytotoxicity [3]: certain cytotoxicity

Compound: CCCCCCCCCCCCCCNC(=O)O[C@H](COC(=O)O[C@H]1CC[C@@]2(C)C(=CC[C@H]3[C@@H]4CC[C@H]([C@H](C)CCCC(C)C)[C@@]4(C)CC[C@@H]32)C1)COP(=O)([O-])OCC[N+](C)(C)C [SML1c, 1-Cholesterylcarbonoyl-2-myristylcarbamoyl-sn-glycero-3-phosphocholine]
- leakage profile of calcein from liposomes ([4]; 37° C., 4 weeks): remained intact
- leakage of calcein in 28 days ([4]; 28 days): less than 1%
- osmotic leakage profile / stability under osmotic gradients [5]: no difference in osmotic induced release
- osmotic leakage profile / stability under osmotic gradients ([5]; listed as ChcMaPC): good stability

Compound: CCCCCCCCCCCCCCCCCC(=O)OCC(COP(=O)([O-])OCC[N+](C)(C)C)OC(=O)OC1CCC2(C)C(=CCC3C2CCC2(C)C(C(C)CCCC(C)C)CCC32)C1 (centres unmarked) [SML5a, 1-Stearoyl-2-cholesterylcarbonoyl-sn-glycero-3-phosphocholine]
- stability of formulation at 4° C. [2]: more than one year

Compound: CCCCCCCCCCCCCCCC(=O)OCC(COP(=O)([O-])OCC[N+](C)(C)C)OC(=O)OC1CCC2(C)C(=CCC3C2CCC2(C)C(C(C)CCCC(C)C)CCC32)C1 (centres unmarked) [SML5b, 1-Palmitoyl-2-cholesterylcarbonoyl-sn-glycero-3-phosphocholine]
- stability of formulation at 4° C. [2]: more than one year
- exchange of cholesterol out of donor liposomes [6]: very little or no detectable exchange of cholesterol

- new transition in DSC trace ([1]; DChcPC/DPPC mixtures, equivalent free cholesterol 30 mole percent): around 20 °C
Compound: CC(C)CCC[C@@H](C)[C@H]1CC[C@H]2[C@@H]3CC=C4C[C@@H](OC(=O)OC[C@H](COP(=O)([O-])OCC[N+](C)(C)C)OC(=O)O[C@H]5CC[C@@]6(C)C(=CC[C@H]7[C@@H]8CC[C@H]([C@H](C)CCCC(C)C)[C@@]8(C)CC[C@@H]76)C5)CC[C@]4(C)[C@H]3CC[C@]12C [SML6a, 1,2-Dicholesterylcarbonoyl-sn-glycero-3-phosphocholine]
- exchange of cholesterol out of donor liposomes [6]: very little or no detectable exchange of cholesterol

- concentration of amphotericin B solubilized [7]: 5000 µg/mL
- solubility in water [7]: dissolves in water easily
Compound: COCCOCCOCCOCCOCCOCCOCCOCCC(=O)O[C@H](COC(=O)CCC(=O)O[C@H]1CC[C@@]2(C)C(=CC[C@H]3[C@@H]4CC[C@H]([C@H](C)CCCC(C)C)[C@@]4(C)CC[C@@H]32)C1)COP(=O)([O-])OCC[N+](C)(C)C [SML16m, 1-cholesterylhemisuccinoyl-2-(2,5,8,11,14,17,20,23-octaoxahexacosan-26-oyl)-sn-glycero-3-phosphocholine]

- half time for cholesterol exchange ([6]; free cholesterol in a conventional liposome (Chol/DPPC/DPPG 40/50/10)): ~2 h
Compound: CC(C)CCC[C@@H](C)[C@H]1CC[C@H]2[C@@H]3CC=C4C[C@@H](O)CC[C@]4(C)[C@H]3CC[C@]12C [free cholesterol, cholesterol, reference compound]
